Patent publication US20170298051A1, “ACTIVATOR OF ADIPONECTIN RECEPTOR” (THE UNIVERSITY OF TOKYO, priority 2013, published 2017)

Assays:
AdipoR1 [1] = assay: Measurement of AMPK phosphorylation ability (Assay 2), C2C12 cells with unrelated or AdipoR1 siRNA; format: cell-based, Mouse
Description: C2C12 cells (ATCC; CRL-1772, medium; DMEM, 10% Fetal Bovine Serum (FBS)) were cultured in a 12- or 24-well plate until they reached 100% confluency (37° C., 5% CO2). The medium was changed to DMEM, 2.5% Horse Serum (HS) and differentiation was started. The medium (DMEM, 2.5% HS) was replaced two days after the start of differentiation. The medium (DMEM, 2.5% HS) was further replaced two days after that.
(§1) On the next day following the replacement of the medium, first, 1 μL of Lipofectamine RNAiMAX and 50 μL of OPTI-MEM were mixed, and then 5 μM siRNA (sense siRNA sequence: […]tt (SEQ ID NO: 1)) and 50 μL of OPTI-MEM were mixed and the resultants were left to stand at room temperature for 5 minutes. And then, the 1 μL Lipofectamine RNAiMAX/50 μL OPTI-MEM and the 5 μM siRNA/50 μL OPTI-MEM were mixed, and the resultant was left to stand at room temperature for 10 minutes, which was added to the cells.
After 5 minutes, the medium (DMEM, 2.5 HS) was replaced, and after starvation on the next day, a test compound listed in Table 12 was added thereto. After 10 minutes, the medium was discarded and the plate was frozen with liquid nitrogen.
(§2) The respective amounts of pAMPK and AMPK were determined in the same way as in the above Assay 1.

AdipoR1 [2] = biological target: T1, AdipoR1 (Mus musculus, UniProt Q91VH1); assay: Measurement of AMPK phosphorylation ability (Assay 1), differentiated C2C12 cells, Western blotting; format: cell-based; conditions: 10 μM, 10 minutes
T1 construct: C2C12 cells (ATCC; CRL-1772, medium; host or cells: differentiated C2C12
T1 sequence (Q91VH1 1-375): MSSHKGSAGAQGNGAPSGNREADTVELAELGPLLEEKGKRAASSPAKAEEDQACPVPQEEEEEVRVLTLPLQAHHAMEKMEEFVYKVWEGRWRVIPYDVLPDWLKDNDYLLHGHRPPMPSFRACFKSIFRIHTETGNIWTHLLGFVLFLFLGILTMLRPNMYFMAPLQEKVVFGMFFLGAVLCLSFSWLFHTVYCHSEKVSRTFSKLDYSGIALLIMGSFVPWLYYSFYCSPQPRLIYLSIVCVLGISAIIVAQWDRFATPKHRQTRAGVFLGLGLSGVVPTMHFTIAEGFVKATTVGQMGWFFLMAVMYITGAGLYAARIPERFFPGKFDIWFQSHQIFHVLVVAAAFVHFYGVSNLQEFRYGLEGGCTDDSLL
Description: (§3) The AMPK phosphorylation ability of the respective compounds according to the present invention was measured by using differentiated C2C12 cells or HEK 293T cells.
C2C12 cells (ATCC; CRL-1772, medium; DMEM, 10% FBS) were cultured in a 12- or 24-well plate until they reached 100% confluency (37° C., 5% CO2).
The medium was changed to 2.5% Horse Serum (HS) and differentiation was started. The medium (DMEM, 2.5% HS) was replaced every three days.
After starvation, a test compound listed in Table 12 (concentration: 10 μM) was added thereto, and after 10 minutes, the medium was discarded and the plate was frozen with liquid nitrogen.
(§4) To the 12- or 24-well cell plate which had been frozen was added 100 or 150 μL of Cell lysis buffer pH 7.4 (50 mM HEPES (pH 7.4), 2 mM sodium orthovanadate, 10 mM sodium pyrophosphate, 10 mM NaF, 2 mM EDTA, 2 mM EGTA, 0.1% (v/v) NP-40, 0.2 mM PMSF), and the cells were scraped off with a cell scraper, suspended and transferred into a micro centrifugal tube. And then, the cells were ultrasonically crushed (1 second×3 times) with a sonicator. Centrifugation was performed at 4° C. at 15,000 rpm for 15 minutes, and the supernatant was recovered into a new tube.
(§5) To 100 μL of the supernatant was added 25 μL of 5× sample buffer (280 mM Tris-HCl (pH 6.9), 40% glycerol, 10% (3-mercaptoethanol, 13% SDS, a small amount of bromophenol blue) and mixed together. The rest of the supernatant was used for protein quantification, and the protein concentrations were uniformed by adding 1× sample buffer depending on the concentration of each sample.
(§6) An electrophoresis chamber was filled with 1× SDS buffer (25 mM Tris-HCl, 250 mM glycine, 0.1% SDS), and the sample was applied to a well of polyacrylamide gel. Electrophoresis was performed until the bromophenol blue in the sample reached to the bottom of the gel.
(§7) A filter paper was soaked in 1× Transfer buffer sufficiently, above which the PVDF membrane and the gel after electrophoresis were stacked in this order, and thereabove a filter paper which had been soaked in 1× Transfer buffer sufficiently was further stacked, from which an air was removed and the resultant was set in semi-dry type transfer apparatus and transferred (7V, 35 minutes).
(§8) An unnecessary portion of the blotted membrane was cutoff, and the rest was immediately soaked in blocking buffer (5% skimmed milk in Rinse buffer), and shaken at room temperature at 40 rpm for 3 hours.
(§9) After blocking, the membrane was transferred into Rinse buffer, and washed at room temperature for 10 minutes while shaking. The membrane was soaked in a primary antibody solution (AMPK alpha Antibody (Cell signaling; #2532) 1/1,000 in Rinse buffer, Phospho-AMPK alpha (Thr172) (40H9) antibody (Cell signaling; #2535) 1/1,000 in Rinse buffer), and shaken at 4° C. at 40 rpm overnight.
(§10) The membrane was soaked in a secondary antibody solution (goat anti-rabbit IgG-HRP Antibody (Santa Cruz; sc-2030) 1/2,000 in Rinse buffer), and shaken at room temperature at 40 rpm for 1 hour.
(§11) After the membrane was washed for 45 minutes in the same way as after the primary antibody reaction, the membrane was soaked in a chemiluminescent reaction solution (ECL Western Blotting Detection Reagents, GE Healthcare) for about 1 minute. An excess of the reaction solution was removed, and then the membranes were arranged on a transparent film and sandwiched with it, with which an X-ray film was exposed in a darkroom (for about several seconds to 60 seconds) to develop the film.
(§12) The X-ray film was scanned to take the image, for which the band was measured by using the image analysis software “Image J” to determine the respective amounts of pAMPK and AMPK.

AdipoR1 [3] = biological target: T2, AdipoR1 (Homo sapiens, UniProt Q96A54); assay: Measurement of AMPK phosphorylation ability (Assay 1), HEK 293T cells, Western blotting; format: cell-based; parameters: HEK 293T cells (ATCC; CRL-3216, medium; host or cells: HEK 293T; conditions: 10 minutes
T2 sequence (Q96A54 1-375): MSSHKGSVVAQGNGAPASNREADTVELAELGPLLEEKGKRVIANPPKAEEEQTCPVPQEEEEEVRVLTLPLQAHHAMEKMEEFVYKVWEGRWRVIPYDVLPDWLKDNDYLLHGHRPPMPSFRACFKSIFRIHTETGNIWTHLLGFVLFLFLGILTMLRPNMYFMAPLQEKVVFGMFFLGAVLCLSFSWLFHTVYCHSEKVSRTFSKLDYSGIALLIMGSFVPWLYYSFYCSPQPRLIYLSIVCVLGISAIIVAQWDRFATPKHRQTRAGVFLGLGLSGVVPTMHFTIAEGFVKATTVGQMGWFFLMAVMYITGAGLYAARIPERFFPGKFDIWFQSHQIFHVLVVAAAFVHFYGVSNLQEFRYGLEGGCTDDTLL
Description: as §3
HEK 293T cells (ATCC; CRL-3216, medium; DMEM, Fetal Bovine Serum (FBS)) were cultured in a 12- or 24-well plate until they reached 100% confluency (37° C., 5% CO2).
After starvation, a test compound listed in Tables 10 and 11 (concentration: 25 μM, 50 μM) was added thereto, and after 10 minutes, the medium was discarded and the plate was frozen with liquid nitrogen.
as §4, §5, §6, §7, §8, §9, §10, §11, §12

AdipoR1 [4] = biological target: T2, AdipoR1; assay: Measurement of AMPK phosphorylation ability (Assay 2), HEK 293T cells with unrelated or AdipoR1 siRNA; format: cell-based; parameters: HEK 293T cells (ATCC; CRL-3216, medium; host or cells: HEK 293T
Description: HEK 293T cells (medium; DMEM, 10% FBS) were cultured in a 24-well plate until they reached 60% confluency (37° C., 5% CO2).
as §1, with “First,” for “On the next day following the replacement of the medium, first,”
After 5 minutes, the medium (DMEM, 10% FBS) was replaced, and after starvation on the next day, a test compound listed in Tables 10 and 11 was added thereto. After 10 minutes, the medium was discarded and the plate was frozen with liquid nitrogen.
as §2

Compound | pAMPK/AMPK (ratio) siRNA, AdipoR1 siRNA (AdipoR1 [1]) [ratio] | pAMPK/AMPK (ratio) siRNA, unrelated siRNA (AdipoR1 [1]) [ratio] | pAMPK/AMPK (%) (AdipoR1 [2]) | pAMPK/AMPK (%) (AdipoR1 [3]; 25 μM) | pAMPK/AMPK (%) (AdipoR1 [3]; 50 μM) | pAMPK/AMPK (ratio) siRNA, AdipoR1 siRNA (AdipoR1 [4]) [ratio] | pAMPK/AMPK (ratio) siRNA, unrelated siRNA (AdipoR1 [4]) [ratio]
COc1ccc(CN2CC[C@@]2(C)C(=O)NC2CCN(Cc3ccccc3)CC2)c2ccccc12 [No. 168198] | 2.97 | 4.53 | 84.85 |  |  |  | 
O=C(NCC[C@@H]1C[C@@H]2C=C[C@H]1C2)c1ccc(OC2CCN(Cc3ccccn3)CC2)cc1 [No. 260544] | 4.12 | 3.79 | 81.90 |  |  |  | 
CC(C)(C)CN1CCC(Oc2ccc(C(=O)NCCc3ccncc3)cc2Cl)CC1 [No. 200737] | 2.68 | 2.13 | 83.71 |  |  |  | 
Cc1ccccc1CN1CCC(Oc2ccc(C(=O)NCc3ccccn3)cc2)CC1 [No. 198637] | 2.51 | 2.24 | 87.39 |  |  |  | 
CC#CCN(Cc1ccco1)C(=O)c1ccc(OC2CCN(Cc3ccccn3)CC2)cc1 [No. 272350] | 2.54 | 2.03 | 84.20 |  |  |  | 
O=C(NC1CCCC1)c1ccc(OC2CCN(Cc3cccc(O)c3)CC2)c(Cl)c1 [No. 251327] | 3.15 | 2.85 | 83.18 |  |  |  | 
COc1ccccc1CN1CCC(Oc2ccc(C(=O)NC3CCCC3)cc2Cl)CC1 [No. 272299] | 2.60 | 2.83 | 91.22 |  |  |  | 
COCCNC(=O)c1ccc(OC2CCN(Cc3cc(OC)ccc3F)CC2)c(Cl)c1 [No. 274971] | 2.51 | 2.38 | 81.64 |  |  |  | 
COc1ccccc1N1CCN(CCC(=O)Nc2cccc(Cl)c2)CC1 [No. 189474] | 1.62 | 2.00 | 88.87 |  |  |  | 
O=C(NC1CCN(Cc2ccccc2)CC1)c1ccc(Cl)c(Cl)c1 [No. 550212] | 2.14 | 1.91 | 80.04 |  |  |  | 
Cc1cccc(CN2CCC(Oc3ccc(C(=O)NC4CCCC4)cc3Cl)CC2)n1 [No. 492284] | 1.88 | 2.05 | 90.14 |  |  |  | 
COCCNC(=O)c1ccc(OC2CCN([C@@H](C)COc3ccccc3)CC2)c(Cl)c1 [No. 211156] | 2.59 | 2.36 | 93.79 |  |  |  | 
COc1ccc(CN2CCN(C(=O)CCNC(=O)c3ccc(C(C)(C)C)cc3)CC2)cc1C [No. 183665] | 2.83 | 2.88 | 99.03 |  |  |  | 
O=C(NC1CCCC1)c1ccc(OC2CCN(Cc3ccoc3)CC2)c(Cl)c1 [No. 268508] | 2.87 | 2.58 | 80.12 |  |  |  | 
CCOCCCNC(=O)c1ccc(OC2CCN(CC(C)(C)C)CC2)c(Cl)c1 [No. 209705] | 1.81 | 1.52 | 81.28 |  |  |  | 
O=C(NCCc1ccc(Cl)cc1)c1ccc(OC2CCN(Cc3ccccn3)CC2)cc1 [No. 264785] | 3.58 | 3.70 | 80.62 |  |  |  | 
CCOc1ccc(OCC(=O)NC2CCN(Cc3ccc(Cl)c(Cl)c3)CC2)cc1 [Compound 38] |  |  |  | 112.70 | 87.54 | 2.43 | 2.67
NC(=O)c1ccc(OCC(=O)NC2CCN(Cc3ccc(Br)cc3)CC2)cc1 [Compound 21] |  |  |  | 81.11 | 83.12 | 1.92 | 2.34
